The source of these data is patent US9200005B2, “Inhibitor compounds of phosphodiesterase type 10A” (AbbVie Deutschland GmbH & Co. KG, priority 2013, dated 2015).

In one data set the target is PDE10A (UniProt Q9Y233). As to the kind of experiment: Measurement of PDE activity (HTRF cAMP kit, recombinant PDE10A). It is filed as biochemical, human, rat and mouse. Conditions: substrate 20 nM, 60 minutes at 29° C. As to the method:
a) Measurement of PDE Activity
The recombinant PDE proteins are used in in vitro enzymatic reaction for measurement of PDE activity. These recombinant proteins, including PDE10A (human, rat and mouse PDE10) and isoforms of PDEs 1, 3, 4, and 5, were purchased from commercial vendor BPS Bioscience. The enzymatic activity of PDEs was determined by cAMP measurement kit from CisBio (IBA) using HTRF technology.
The PDE enzymatic reaction was carried out in assay buffer (20 mM Tris-HCl pH 7.5, 10 mM MgCl2, 0.1% bovine serum albumin) containing enzyme and substrate. […] The substrate cyclic nucleotide (cAMP or cGMP) concentration used in the assay was 20 nM for PDE10, and 100 nM for other PDEs. The inhibitory effect of compound was determined by incubating various concentration of inhibitor in the enzymatic assay. […] Next, the compound at varying concentration was mixed with PDE enzyme. The reaction was initiated by addition of cyclic nucleotide substrate, and incubated for 60 minutes at 29° C. The reaction was stopped by addition of lysis buffer from the assay kit. The cAMP-d2 and anti-cAMP cryptate in the lysis buffer detected the level of cAMP left from the PDE hydrolysis reaction. […] Thus, IC50 value of inhibitor can be obtained by plotting inhibitor concentration against PDE activity at that concentration.
(Time-resolved FRET reads energy transfer from a long-lived donor to a nearby acceptor.)

The nature of data set [1]: Determination of the microsomal half-life / microsomal clearance, rat liver microsomes. It is filed as in vitro ADME. As to conditions: 0.5 μM test substance, 0.25 mg of microsomal protein/mL, NADPH, 37° C. In a few lines: (§1)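 Compound (0.5 μM) was preincubated 5 min at 37 °C with rat or human liver microsomes (0.25 mg protein/mL) in 0.05 M phosphate pH 7.4, and NADPH (1 mg/mL) was then added. Samples taken at 0-30 min and quenched with acetonitrile were analysed by MS/MS. T½ was derived assuming first-order decay, and clearance […] was calculated from T½ and protein content.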
In general terms: Liver microsomes are vesicles of endoplasmic reticulum, rich in cytochrome P450 enzymes.

Data set [2] is described as follows: Determination of the microsomal half-life / microsomal clearance, human liver microsomes. It is filed as in vitro ADME. Conditions: 0.5 μM test substance, 0.25 mg of microsomal protein/mL, NADPH, 37° C. In a few lines: as §1

With `Cn1nc(-c2ccncc2)c2scc(-c3cccnc3)c2c1=O.O=C(O)C(F)(F)F` [Example 14, 5-methyl-3-(pyridin-3-yl)-7-(pyridin-4-yl)thieno[2,3-d]pyridazin-4(5H)-one bis(trifluoroacetate)], the 50% inhibitory concentration (IC50) – broadly, the concentration at which inhibition is half-maximal – at PDE10A is 0.1 to 0.2 µM. For the same compound, the “Rat mCl” value in data set [1] (bis(trifluoroacetate)) was “++ (++: <100 μl min^−1 mg^−1)”. Further, the “Human mCl” value in data set [2] is reported as “++ (++: <100 μl min^−1 mg^−1)”.

As to `Cn1nc(NCc2ccccc2)c2scc(-c3ccncc3)c2c1=O.O=C(O)C(F)(F)F.O=C(O)C(F)(F)F` [Example 50, 7-(benzylamino)-5-methyl-3-(pyridin-4-yl)thieno[2,3-d]pyridazin-4(5H)-one bis(trifluoroacetate)], the IC50 at PDE10A is 0.1 to 0.2 µM. For the same compound, the “Rat mCl” value in data set [1] is “++ (++: <100 μl min^−1 mg^−1)”. Further, the “Human mCl” value in data set [2] was “++ (++: <100 μl min^−1 mg^−1)”.

As to `Cn1nc(OCc2ccco2)c2scc(-c3ccncc3)c2c1=O` [Example 52, 7-(furan-2-ylmethoxy)-5-methyl-3-(pyridin-4-yl)thieno[2,3-d]pyridazin-4(5H)-one], the IC50 on PDE10A was 0.1 to 0.2 µM. In data set [1], the “Rat mCl” value is reported as “+ (+: 100-220 μl min^−1 mg^−1)”. The “Human mCl” value in data set [2] was “++ (++: <100 μl min^−1 mg^−1)”.

With `Cn1nc(OCc2ccccc2)c2scc(-c3ccncc3)c2c1=O` [Example 54, 7-(benzyloxy)-5-methyl-3-(pyridin-4-yl)thieno[2,3-d]pyridazin-4(5H)-one], the IC50 at PDE10A lay in the range of 0.1 to 0.2 µM. Besides, the “Rat mCl” value in data set [1] is recorded as “+ (+: 100-220 μl min^−1 mg^−1)”. Also, in data set [2], the “Human mCl” value is recorded as “++ (++: <100 μl min^−1 mg^−1)”.

For the compound `Cn1nc(OCc2ccccn2)c2scc(-c3ccncc3)c2c1=O` [Example 55, 5-methyl-3-(pyridin-4-yl)-7-(pyridin-2-ylmethoxy)thieno[2,3-d]pyridazin-4(5H)-one], the IC50 at PDE10A was 0.1 to 0.2 µM. Moreover, the “Rat mCl” value in data set [1] is given as “+ (+: 100-220 μl min^−1 mg^−1)”. Besides, the “Human mCl” value in data set [2] is on record as “++ (++: <100 μl min^−1 mg^−1)”.

On to `Cn1nc(OCc2nccs2)c2scc(-c3ccncc3)c2c1=O` [Example 58, 5-methyl-3-(pyridin-4-yl)-7-(1,3-thiazol-2-ylmethoxy)thieno[2,3-d]pyridazin-4(5H)-one], for which, on PDE10A, the IC50 was less than 0.1 µM. Moreover, the “Rat mCl” value in data set [1] was “++ (++: <100 μl min^−1 mg^−1)”. Besides, the “Human mCl” value in data set [2] is “++ (++: <100 μl min^−1 mg^−1)”.

As to `Cn1nc(OCc2cccc(C#N)c2)c2scc(-c3ccncc3)c2c1=O.O=C(O)C(F)(F)F` [Example 59, 3-({[5-methyl-4-oxo-3-(pyridin-4-yl)-4,5-dihydrothieno[2,3-d]pyridazin-7-yl]oxy}methyl)benzonitrile trifluoroacetate], the IC50 on PDE10A is less than 0.1 µM. The “Rat mCl” value in data set [1] was “++ (++: <100 μl min^−1 mg^−1)”. Also, the “Human mCl” value in data set [2] is “++ (++: <100 μl min^−1 mg^−1)”.

On to `COc1cccc(COc2nn(C)c(=O)c3c(-c4ccncc4)csc23)c1` [Example 61, 7-[(3-methoxybenzyl)oxy]-5-methyl-3-(pyridin-4-yl)thieno[2,3-d]pyridazin-4(5H)-one], for which, at PDE10A, the IC50 was 0.1 to 0.2 µM. In addition, the “Rat mCl” value in data set [1] is on record as “+ (+: 100-220 μl min^−1 mg^−1)”. In addition, the “Human mCl” value in data set [2] is “++ (++: <100 μl min^−1 mg^−1)”.

Take `Cn1nc(OCc2ccc(Cl)cc2)c2scc(-c3ccncc3)c2c1=O` [Example 62, 7-[(4-chlorobenzyl)oxy]-5-methyl-3-(pyridin-4-yl)thieno[2,3-d]pyridazin-4(5H)-one]: the IC50 at PDE10A was in the range of 0.2 to 0.5 µM. Moreover, the “Rat mCl” value in data set [1] is given as “++ (++: <100 μl min^−1 mg^−1)”. The “Human mCl” value in data set [2] is on record as “++ (++: <100 μl min^−1 mg^−1)”.

In the case of `Cn1nc(OCc2coc3ccccc23)c2scc(-c3ccncc3)c2c1=O` [Example 63, 7-(1-benzofuran-3-ylmethoxy)-5-methyl-3-(pyridin-4-yl)thieno[2,3-d]pyridazin-4(5H)-one], on PDE10A, the IC50 is 0.1 to 0.2 µM. Also, the “Rat mCl” value in data set [1] is given as “++ (++: <100 μl min^−1 mg^−1)”. Further, the “Human mCl” value in data set [2] is “++ (++: <100 μl min^−1 mg^−1)”.

On to `Cn1nc(OCc2cccc3ccoc23)c2scc(-c3ccncc3)c2c1=O` [Example 64, 7-(1-benzofuran-7-ylmethoxy)-5-methyl-3-(pyridin-4-yl)thieno[2,3-d]pyridazin-4(5H)-one], for which the half-inhibitory concentration (IC50) at PDE10A lay in the range of 0.1 to 0.2 µM. Further, in data set [1], the “Rat mCl” value is “++ (++: <100 μl min^−1 mg^−1)”. Also, in data set [2], the “Human mCl” value is reported as “++ (++: <100 μl min^−1 mg^−1)”.

Consider `Cn1nc(OCc2cccc(C(N)=O)c2)c2scc(-c3ccncc3)c2c1=O.O=C(O)C(F)(F)F` [Example 67, 3-({[5-methyl-4-oxo-3-(pyridin-4-yl)-4,5-dihydrothieno[2,3-d]pyridazin-7-yl]oxy}methyl)benzamide trifluoroacetate], for which the IC50 on PDE10A is less than 0.1 µM. In addition, the “Rat mCl” value in data set [1] is on record as “++ (++: <100 μl min^−1 mg^−1)”. Further, the “Human mCl” value in data set [2] is on record as “++ (++: <100 μl min^−1 mg^−1)”.

As to `Cn1nc(OCc2ccc3c(c2)OCO3)c2scc(-c3ccncc3)c2c1=O` [Example 69, 7-(1,3-benzodioxol-5-ylmethoxy)-5-methyl-3-(pyridin-4-yl)thieno[2,3-d]pyridazin-4(5H)-one], the IC50 on PDE10A lay within 0.1 to 0.2 µM. Moreover, the “Rat mCl” value in data set [1] is “+ (+: 100-220 μl min^−1 mg^−1)”. Also, the “Human mCl” value in data set [2] is listed as “++ (++: <100 μl min^−1 mg^−1)”.

On to `Cn1nc(OCc2nc3ccccc3n2C)c2scc(-c3ccncc3)c2c1=O` [Example 70, 5-methyl-7-[(1-methyl-1H-benzimidazol-2-yl)methoxy]-3-(pyridin-4-yl)thieno[2,3-d]pyridazin-4(5H)-one], for which the IC50 on PDE10A was less than 0.1 µM. The “Rat mCl” value in data set [1] is listed as “+ (+: 100-220 μl min^−1 mg^−1)”. In data set [2], the “Human mCl” value is “+ (+: 100-220 μl min^−1 mg^−1)”.

Consider `CC(C)Oc1cccc(COc2nn(C)c(=O)c3c(-c4ccncc4)csc23)c1` [Example 73, 5-methyl-7-{[3-(propan-2-yloxy)benzyl]oxy}-3-(pyridin-4-yl)thieno[2,3-d]pyridazin-4(5H)-one], for which the IC50 at PDE10A lay within 0.2 to 0.5 µM. The “Rat mCl” value in data set [1] is “++ (++: <100 μl min^−1 mg^−1)”. For the same compound, the “Human mCl” value in data set [2] was “++ (++: <100 μl min^−1 mg^−1)”.

As for `COc1cc(COc2nn(C)c(=O)c3c(-c4ccncc4)csc23)cc(OC)c1` [Example 75, 7-[(3,5-dimethoxybenzyl)oxy]-5-methyl-3-(pyridin-4-yl)thieno[2,3-d]pyridazin-4(5H)-one], the IC50 on PDE10A was less than 0.1 µM. For the same compound, the “Rat mCl” value in data set [1] is on record as “++ (++: <100 μl min^−1 mg^−1)”. Besides, in data set [2], the “Human mCl” value is listed as “+ (+: 100-220 μl min^−1 mg^−1)”.

On to `Cn1nc(OCc2cccc(OC(F)F)c2)c2scc(-c3ccncc3)c2c1=O` [Example 76, 7-{[3-(difluoromethoxy)benzyl]oxy}-5-methyl-3-(pyridin-4-yl)thieno[2,3-d]pyridazin-4(5H)-one], for which, on PDE10A, the IC50 is less than 0.1 µM. For the same compound, the “Rat mCl” value in data set [1] was “++ (++: <100 μl min^−1 mg^−1)”. Further, the “Human mCl” value in data set [2] is given as “++ (++: <100 μl min^−1 mg^−1)”.

With `CC(Oc1nn(C)c(=O)c2c(-c3ccncc3)csc12)c1nc2ccccc2n1C` (stereo not drawn) [Example 78, 5-methyl-7-[1-(1-methyl-1H-benzimidazol-2-yl)ethoxy]-3-(pyridin-4-yl)thieno[2,3-d]pyridazin-4(5H)-one], the IC50 at PDE10A was less than 0.1 µM. The “Rat mCl” value in data set [1] was “+ (+: 100-220 μl min^−1 mg^−1)”. Moreover, the “Human mCl” value in data set [2] is “++ (++: <100 μl min^−1 mg^−1)”.

For the compound `Cn1nc(Oc2ccccc2)c2scc(-c3ccncc3)c2c1=O` [Example 81, 5-methyl-7-phenoxy-3-(pyridin-4-yl)thieno[2,3-d]pyridazin-4(5H)-one], the IC50 at PDE10A fell in the range of 0.2 to 0.5 µM. Also, the “Rat mCl” value in data set [1] is reported as “++ (++: <100 μl min^−1 mg^−1)”. In addition, in data set [2], the “Human mCl” value is reported as “++ (++: <100 μl min^−1 mg^−1)”.

As to `Cn1nc(Oc2cccnc2)c2scc(-c3ccncc3)c2c1=O` [Example 82, 5-methyl-3-(pyridin-4-yl)-7-(pyridin-3-yloxy)thieno[2,3-d]pyridazin-4(5H)-one], the IC50 at PDE10A fell in the range of 0.2 to 0.5 µM. In data set [1], the “Rat mCl” value was “++ (++: <100 μl min^−1 mg^−1)”. In data set [2], the “Human mCl” value is recorded as “++ (++: <100 μl min^−1 mg^−1)”.

Take `Cn1nc(Oc2ccccc2C#N)c2scc(-c3ccncc3)c2c1=O.O=C(O)C(F)(F)F` [Example 83, 2-{[5-methyl-4-oxo-3-(pyridin-4-yl)-4,5-dihydrothieno[2,3-d]pyridazin-7-yl]oxy}benzonitrile trifluoroacetate]: the IC50 at PDE10A fell in the range of 0.1 to 0.2 µM. The “Rat mCl” value in data set [1] is reported as “++ (++: <100 μl min^−1 mg^−1)”. The “Human mCl” value in data set [2] was “+ (+: 100-220 μl min^−1 mg^−1)”.

For `COc1ccccc1Oc1nn(C)c(=O)c2c(-c3ccncc3)csc12.O=C(O)C(F)(F)F` [Example 84, 7-(2-methoxyphenoxy)-5-methyl-3-(pyridin-4-yl)thieno[2,3-d]pyridazin-4(5H)-one trifluoroacetate], the IC50 at PDE10A lay in the range of 0.1 to 0.2 µM. In data set [1], the “Rat mCl” value is “∘ (∘ not avialable or >220 μl min^−1 mg^−1)”. Moreover, the “Human mCl” value in data set [2] is reported as “++ (++: <100 μl min^−1 mg^−1)”.
